In one data set the target is T1, human NK2 receptor (Homo sapiens, UniProt P21452).
T1 sequence (P21452 1-398): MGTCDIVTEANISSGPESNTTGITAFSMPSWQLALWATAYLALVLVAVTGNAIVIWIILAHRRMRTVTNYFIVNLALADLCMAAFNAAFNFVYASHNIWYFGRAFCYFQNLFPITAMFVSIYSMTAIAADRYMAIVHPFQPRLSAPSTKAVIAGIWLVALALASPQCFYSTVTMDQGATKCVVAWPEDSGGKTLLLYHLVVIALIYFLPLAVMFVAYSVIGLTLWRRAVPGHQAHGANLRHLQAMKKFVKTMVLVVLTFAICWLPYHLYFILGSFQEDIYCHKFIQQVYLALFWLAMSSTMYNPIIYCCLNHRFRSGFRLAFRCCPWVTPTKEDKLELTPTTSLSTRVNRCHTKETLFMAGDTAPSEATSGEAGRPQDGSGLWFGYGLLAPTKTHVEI
In words: Human NK2 receptor affinity: competition with [3H]-NKA for binding to CHO cell membranes. The protocol:
The affinity of the compounds of formula (I) and their salts for the human NK2 receptor can be tested in vitro by testing their ability to compete with [^3H]-NKA (neurokinin A) for binding to membranes prepared from Chinese hamster ovary cells expressing the cloned human NK2 receptor. In this method, washed Chinese hamster ovary cell membranes are prepared as described for the previous method where IM9 cells are used instead. The membranes are incubated (90 min, 25°C) with [^3H]-NKA and with a range of concentrations of the test compound. Non-specific binding was determined in the presence of 10µM NKA.
Human NK2 receptor affinity was tested in vitro by testing the ability to compete with [^3H]-NKA for binding to membranes prepared from Chinese hamster ovary cells expressing the cloned human NK2 receptor using the method set out on page 10. The pKi was then determined.
(§1) The "pKi" measurement is the negative logarithm of the molar affinity of the test compound for the receptor as determined in radioligand binding assays using standard protocols. A 1.0 log. unit difference in either the NK2 or NK3 receptor affinity figures corresponds to a 10-fold activity difference.

A further data set addresses T2, NK3 receptor (Cavia porcellus, UniProt P30098).
T2 construct: membranes from guinea pig cortex; from tissue; host or cells: guinea pig cortex membranes
T2 sequence (P30098 1-440): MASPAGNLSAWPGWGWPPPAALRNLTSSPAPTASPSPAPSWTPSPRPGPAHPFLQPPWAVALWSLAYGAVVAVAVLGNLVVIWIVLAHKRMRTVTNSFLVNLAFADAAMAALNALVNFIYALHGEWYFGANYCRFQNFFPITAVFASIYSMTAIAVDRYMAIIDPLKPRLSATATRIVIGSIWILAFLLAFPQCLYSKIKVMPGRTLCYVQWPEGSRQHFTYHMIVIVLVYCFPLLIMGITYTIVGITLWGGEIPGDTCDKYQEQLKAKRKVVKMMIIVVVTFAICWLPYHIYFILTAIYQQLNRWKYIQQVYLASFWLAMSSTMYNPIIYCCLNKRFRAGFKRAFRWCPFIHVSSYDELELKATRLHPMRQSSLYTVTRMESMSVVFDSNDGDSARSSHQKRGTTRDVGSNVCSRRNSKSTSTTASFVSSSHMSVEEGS
As to the kind of experiment: NK3 receptor affinity: inhibition of [3H]-senktide binding to guinea pig cortex membranes. The protocol: The compounds of the formula (I) and their salts can be tested for NK3 receptor affinity, in vitro, by testing their ability to inhibit [^3H]-senktide binding to membranes from guinea pig cortex using the method of Guard, et al, Br.J.Pharmacol., 99, 767-773 (1990).
NK3 receptor affinity was tested, in vitro, by the method described on pages 10 and 11 by testing the ability to inhibit [^3H]-senktide binding to membranes from guinea pig cortex using the method of Guard, et al, Br.J.Pharmacol., 99, 767-773 (1990). The pKi was then determined.
as §1

Data set [1] can be described thus: In vitro metabolic stability: disappearance half-life in human liver microsomes (HLM/37). It counts as in vitro ADME. Particulars: human liver microsomes HLM/37 (0.5µM cytochrome P450), test compound 1µM, 37°C, NADPH, 60 minutes. The protocol: The in vitro metabolic stability of the compounds of the formula (I) and their salts can be tested by incubating samples for 1 hour at 37°C in the presence of a "moderate activity" (re. concentrations of cytochrome p450 enzymes present) human liver microsomal preparation (prepared from human liver homogenates). The samples were analysed by HPLC at regular intervals during this one hour period and the half-life (t½) determined (in minutes).
The metabolic stability of the compounds was determined in vitro by the method described on page 11 according to the following experimental protocol.
Transplant-quality human liver tissue was obtained from the International Institute for the Advancement of Medicine (Exton, PA). The donors ranged in age from 26 to 65 years old and included 3 males and 3 females. Hepatic microsomes were prepared from individual human livers by the process of differential centrifugation. Briefly, the liver tissue was homogenised in 50mM Tris HCI (pH 7.4) containing 250mM sucrose and then centrifuged at 9,000G for 20 minutes to remove the cell debris and nuclear fraction. The supernatant layer was removed and further centrifuged at 105,000G for 60 minutes to pellet the microsomal fraction. […] The cytochrome P450 content was determined using the method of Omura, T., Sato, R., J. Biol. Chem., 239, 2379-2385 (1964) and the protein concentration was determined using the method of Lowry et al., J. Biol. Chem., 193, 265-275 (1951), with bovine serum albumin as the protein standard.
The metabolic activities of the 6 major drug metabolising cytochrome P450 enzymes were determined for HLM/37 and compared to values obtained from a bank of individual human livers (n = 19). […]
Aliquots (100µl) were removed from the incubation at 0, 3, 5, 10, 15, 20, 30, 45 and 60 minutes after the addition of NADPH. […] After centrifugation 150µl aliquots were removed and 120µl of each of these analysed by HPLC on a Hypersil HS C18 5µ column (50x4.6mm) with a mobile phase of methanol:water (90:10, by volume) containing 2mM ammonium acetate. […]
(Liver microsomes are a subcellular fraction often used to study metabolism.)

Structures can show the parent of a compound that is named as a salt. Where two headings read alike, the source gives them in different places.

Broadly, the half-life is how long it takes for the measured level to halve. Lower therefore signals fast loss.

On to `O=C(c1ccccc1)N1CCC[C@](CCN2CCC(C3CCOCC3)CC2)(c2ccc(Cl)c(Cl)c2)C1` [Example 2], for which the Ki at human NK2 receptor ([3H]-NKA, membranes from Chinese hamster ovary cells expressing the cloned human NK2 receptor, 90 min, 25°C, read-out: pKi (NK2) (converted)) is 6.31 nM; on NK3 receptor ([3H]-senktide, membranes from guinea pig cortex, read-out: pKi (NK3) (converted)) it was 63.1 nM. Besides, in data set [1], the half-life at 1 µM came out at 28 min.
In the case of `CS(=O)(=O)N1CC(C2CCN(CC[C@]3(c4ccc(Cl)c(Cl)c4)CCCN(C(=O)c4ccccc4)C3)CC2)C1` [Example 10, 3(S)-1-Benzoyl-3-(3,4-dichlorophenyl)-3-{2-[4-(1-methylsulfonylazetidin-3-yl)piperidin-1-yl]ethyl}piperidine], the figures for the Ki on human NK2 receptor and at NK3 receptor were 5.01 nM and 20 nM, respectively. Besides, the half-life at 1 µM in data set [1] is 32 min.
For `CS(=O)(=O)N1CCC(C2CN(CC[C@]3(c4ccc(Cl)c(Cl)c4)CCCN(C(=O)c4ccccc4)C3)C2)CC1` [Example 6, 3(S)-1-Benzoyl-3-(3,4-dichlorophenyl)-3-{2-[3-(1-methylsulphonyl-4-piperidinyl)azetidin-1-yl]ethyl}piperidine hydrochloride], in that order: 5.01 nM, 39.8 nM and 53 min.

These data come from patent EP0992493A1, “Substituted benzoylpiperidine derivatives and their use as Neurokinin antagonists” (PFIZER INC., priority 1998, dated 2000).
